In patent publication US20070010664A1, “Gene expression in the central nervous system regulated by neuroleptic agents” (priority 2001, published 2007):

Assays:
[1] = tested on: CLZ_40 (TTGT 266) mRNA in striatum and amygdala; assay: TOGA analysis of mRNA from brain of morphine-treated mice; format: in vivo, mouse
Protocol: For the morphine studies, male C57B1/6J mice (20-28 g) were housed as previously described in Example 1 and divided into the following groups: 1) a control group, in which the mice were subcutaneusly implanted with one placebo pellet upon halothane anaesthesia; 2) an acute morphine group, in which the mice received a morphine intraperitoneal injection of 10 mg/kg; 3) a chronic or tolerant group, in which mice were rendered drug-tolerant and dependent by means of subcutaneous implantation of a single pellet containing 75 mg of morphine free base for 3 days; and 4) a withdrawal group, in which the mice rendered tolerant to morphine were injected intraperitoneally with naltrexone 1 mg/kg. […] Their brains were rapidly removed. The striatum, including the nucleus accumbens, and block of tissues containing the amygdala complex were dissected under microscope and collected in ice-cold RNA extraction buffer.

[2] = tested on: mouse sequence homolog to human KIAA1451 (SEQ ID NO:79); assay: Real Time PCR of mouse sequence homolog to human KIAA1451; details: mice chronically treated
[3] = tested on: CLZ_40 (SEQ ID NO:12) mRNA; assay: Real Time PCR validation of CLZ_40; format: in vivo, mouse; details: mice chronically (2 weeks) treated
From the text: Validation of the DST expression for select DSTs was done by Real Time PCR using the ABI PRISM 7700 Sequence Detection System (PE Biosystems) that combines PCR, cycle-by-cycle fluorescence detection and analysis software for high-throughput quantitation of nucleic acid sequences. […] Standards for normalizing the quantitation of gene levels were chosen from a panel of 5 mouse “housekeeping” genes.

[4] = tested on: apoD mRNA; assay: apoD mRNA expression in mouse brain after 5HT2 antagonists (preliminary results); format: in vivo
[5] = tested on: CLZ_44 (SEQ ID NO:38) mRNA; assay: Northern blot analysis of CLZ_44 in striatum/nucleus accumbens; format: in vivo, mouse; details: 2 weeks of treatment; clozapine 7.5 mg/kg, haloperidol 4 mg/kg, ketanserin 4 mg/kg
Protocol: FIG. 39 is a graphical representation of a Northern Blot analysis of clone CLZ—44 (ACGG 352) (SEQ ID NO:38), where an agarose gel containing poly A enriched mRNA from the striatum/nucleus accumbens of clozapine-treated mice as well as size standards was blotted after electrophoresis and probed with radiolabelled CLZ—44.
In further characterization of CLZ—44, Northern blot analyses were performed to determine the pattern of expression in the striatum/nucleus accumbens after 2 weeks of treatment of control mice, clozapine-treated mice, haloperidol-treated mice, and ketanserin-treated mice (FIG. 39). Ketanserin is a 5HT2A/2C—selective antagonist, and is used to determine serotonorgic involvement in these drug effects. FIG. 39 is a graphical representation of the described northern blot analyses.

[6] = tested on: CLZ_5 (apoD) mRNA; assay: Real Time PCR validation of CLZ_5 (apoD); format: in vivo, mouse; details: clozapine or haloperidol treated mice
[7] = tested on: CLZ_43 (SEQ ID NO:37) mRNA; assay: Real Time PCR validation of CLZ_43; details: clozapine 12 days; haloperidol 14 days; relative to untreated mice
[8] = tested on: mRNAs (DSTs) expressed in striatum/nucleus accumbens; assay: TOGA analysis of mRNA from striatum/nucleus accumbens of neuroleptic-treated mice (Table 1); details: haloperidol experiment in duplicate, average
[9] = tested on: apoD mRNA; assay: In situ hybridization analysis of apoD (CLZ_5) in mouse brain; format: in vivo; details: clozapine 7.5 mg/kg five days and two weeks: striatum, cortex, globus pallidus, thalamus, white matter tracts; haloperidol: gray or white matter regions
Protocol: In further characterization of CLZ—43, in situ hybridization analysis using an antisense cRNA probe directed against the 3′ end of CLZ—43 were performed to show the pattern of CLZ—43 mRNA expression (FIG. 4A-F). In situ hybridization was performed on free-floating coronal sections (25 μM thick) with an ^35S-labeled, single-stranded antisense cRNA probe of CLZ—43. Coronal sections were hybridized at 55° C for 16 hour with an ^35S-labeled, single-stranded antisense cRNA probe of CLZ—43 at 10^7 cpm/ml. The probe was synthesized from the 3′-ended cDNA TOGA™ clone using the Maxiscript Transcription Kit (Ambion, Austin, Tex.). Excess probe was removed by washing with 2×SSC (I×SSC=[…]) containing 14 mM β-mercaptoethanol (30 minutes), followed by incubation with 4 μg/ml ribonuclease in 0.5 M NaCl/0.05 M EDTA/0.05 M Tris-HCl, pH 7.5, for 1 hour at 37° C. High stringency washes were carried out at 55° C. for 2 hours in 0.5×SSC/50% formamide/0.01 M β-mercaptoethanol, and then at 68° C. for 1 hour in 0.1×SSC/0.01 M β-mercaptoethanol/0.5% sarkosyl. […]
To investigate additional sites of apoD induction, in situ hybridization analysis was performed on brains from saline- and clozapine-treated mice. […] Increases in apoD expression were also detected in white matter tracts, predominantly the corpus callosum (cc), anterior commissure, internal capsule (ic) and optic tract (opt). […]

## CN1CC[C@]23c4c5ccc(O)c4O[C@H]2[C@@H](O)C=C[C@H]3[C@H]1C5 [morphine]
[1]; acute morphine 10 mg/kg i.p., withdrawal (naltrexone 1 mg/kg in morphine-tolerant mice)
  CLZ_40 expression in striatum, TOGA: downregulated in withdrawal striatum but not acutely treated striatum
[1]; acutely treated (morphine 10 mg/kg i.p., 4 hours)
  CLZ_40 expression in amygdala, TOGA: slightly upregulated
[1]; chronically treated (75 mg pellet, 3 days) and withdrawal
  CLZ_40 expression in amygdala, TOGA: increasingly upregulated

## CN1CCN(C2=Nc3cc(Cl)ccc3Nc3ccccc32)CC1 [clozapine]
[2]
  increase in expression of mouse homolog to human KIAA1451, Real Time PCR: 2.09 fold
[3]
  decrease in expression of CLZ_40, Real Time PCR: 0.37 fold

## O=C(c1ccc(F)cc1)C1CCN(CCn2c(=O)[nH]c3ccccc3c2=O)CC1 [ketanserin]
[4]
  apoD mRNA expression in mouse brain: apparent upregulation
[5]
  CLZ_44 expression, Northern: up-regulated

## O=C(CCCN1CCC(O)(c2ccc(Cl)cc2)CC1)c1ccc(F)cc1 [haloperidol]
[5]
  CLZ_44 expression, Northern: up-regulated
[6]
  increase in expression of CLZ_5 (apoD), Real Time PCR: 1.75 fold
[2]
  increase in expression of mouse homolog to human KIAA1451, Real Time PCR: 2.57 fold
[7]
  CLZ_43 expression, TOGA and Real Time PCR: not significantly responsive
[8]
  CLZ_43 TOGA profile for the haloperidol response: 1.08 fold
[9]
  apoD mRNA, in situ hybridization: did not reveal substantial increases
[3]
  decrease in expression of CLZ_40, Real Time PCR: 0.66 fold
